The target of test [1] is T1, catalytic domain of human Bub1 (amino acids 704-1085) (Homo sapiens, UniProt O43683).
T1 construct: catalytic domain of human Bub1 (amino acids 704-1085); His6 (N); made in house; host or cells: Hi5 insect cells
In words: Bub1 kinase assay (TR-FRET). It counts as biochemical. The conditions noted are these: ATP 10 μM, peptide substrate 1 μM, 60 min at 22° C. As for the experimental part: To this end, 100-fold concentrated compound solutions (in DMSO) were previously prepared by serial dilution (1:3.4) of 2 mM stocks in a clear low volume 384-well source microtiter plate (Greiner Bio-One, Frickenhausen, Germany), from which 50 nl of compounds were transferred into a black low volume test microtiter plate from the same supplier. […] The resulting mixture (5 μl final volume) was incubated at 22° C. during 60 min., and the reaction was stopped by the addition of 5 μl of an aqueous EDTA-solution (50 mM EDTA, in 100 mM HEPES pH 7.5 and 0.2% (w/v) bovine serum albumin) which also contained the TR-FRET detection reagents (0.2 μM streptavidin-XL665 [Cisbio Bioassays, Codolet, France] and 1 nM anti-phosho-Serine antibody [Merck Millipore, cat. #35-001] and 0.4 nM LANCE EU-W1024 labeled anti-mouse IgG antibody [Perkin-Elmer, product no. AD0077, alternatively a Terbium-cryptate-labeled anti-mouse IgG antibody from Cisbio Bioassays can be used]). The stopped reaction mixture was further incubated 1 h at 22° C. in order to allow the formation of complexes between peptides and detection reagents. Subsequently, the amount of product was evaluated by measurement of the resonance energy transfer from the Eu-chelate-antibody complex recognizing the Phosphoserine residue to the streptavidin-XL665 bound to the biotin moiety of the peptide. […] IC50 values were calculated by fitting the normalized inhibition data to a 4-parameter logistic equation (Minimum, Maximum, IC50, Hill; Y=Max+(Min−Max)/(1+(X/IC50)Hill)).
On the technique in general: Time-resolved FRET reads energy transfer from a long-lived donor to a nearby acceptor.

Test [2] deals with HeLa cell line. The experiment in a line: Proliferation assay (HeLa cell line).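 Further: crystal violet staining of cell number, absorbance read at 595 nm, compounds tested at 0.001–10 µM, zero-point plate taken as 0% and untreated cells as 100%, four-parameter fit.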
Method: Cultivated tumor cells (cells were ordered from ATCC, except HeLa-MaTu and HeLa-MaTu-ADR, which were ordered from EPO-GmbH, Berlin) were plated at a density of 1000 to 5000 cells/well, depending on the growth rate of the respective cell line, in a 96-well multititer plate in 200 μL of their respective growth medium supplemented 10% fetal calf serum. After 24 hours, the cells of one plate (zero-point plate) were stained with crystal violet (see below), while the medium of the other plates was replaced by fresh culture medium (200 μl), to which the test substances were added in various concentrations (0 μM, as well as in the range of 0.001-10 μM; the final concentration of the solvent dimethyl sulfoxide was 0.5%). The cells were incubated for 4 days in the presence of test substances. Cell proliferation was determined by staining the cells with crystal violet: the cells were fixed by adding 20 μl/measuring point of an 11% glutaric aldehyde solution for 15 minutes at room temperature. After three washing cycles of the fixed cells with water, the plates were dried at room temperature. The cells were stained by adding 100 μl/measuring point of a 0.1% crystal violet solution (pH 3.0). After three washing cycles of the stained cells with water, the plates were dried at room temperature. The dye was dissolved by adding 100 μl/measuring point of a 10% acetic acid solution. Absorption was determined by photometry at a wavelength of 595 nm. The change of cell number, in percent, was calculated by normalization of the measured values to the absorption values of the zero-point plate (=0%) and the absorption of the untreated (0 μm) cells (=100%). The IC50 values were determined by means of a 4 parameter fit.
Where [3] appears, read: TR-FRET, read-out: Biological Assay 1: Bub1 kinase assay median IC50.
[4] abbreviates: Homo sapiens, HeLa, 96 h, read-out: Biological Assay 2: Proliferation assay (HeLa cell line) median IC50, HeLa cells, 4 days incubation, crystal violet staining.
Where [5] appears, read: Biological Assay 1: Bub1 kinase assay median IC50, TR-FRET.
[6] abbreviates: Homo sapiens, HeLa, 96 h, read-out: Biological Assay 2: Proliferation assay (HeLa cell line) median IC50.

Structures are written as SMILES. Read-outs that look alike come from different tables or passages of the source. Where only a bound is given, the exact number is not on record here.

T1 sequence (O43683 704-1085): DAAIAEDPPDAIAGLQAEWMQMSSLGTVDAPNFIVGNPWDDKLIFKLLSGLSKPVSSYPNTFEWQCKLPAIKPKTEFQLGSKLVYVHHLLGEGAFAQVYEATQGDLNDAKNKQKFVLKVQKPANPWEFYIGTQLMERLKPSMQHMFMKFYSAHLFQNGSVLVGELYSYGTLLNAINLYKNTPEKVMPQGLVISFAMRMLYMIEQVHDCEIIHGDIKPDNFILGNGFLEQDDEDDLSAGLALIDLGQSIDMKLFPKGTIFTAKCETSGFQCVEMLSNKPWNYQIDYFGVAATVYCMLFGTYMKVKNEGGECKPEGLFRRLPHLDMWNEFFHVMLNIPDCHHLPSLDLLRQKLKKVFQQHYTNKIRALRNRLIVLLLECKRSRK

Consider `CCOc1cc(F)c(Cn2nc(-c3ncc(OCC[S+](C)[O-])c(Nc4ccncc4)n3)c(C)c2C2CC2)c(F)c1` (racemic) [Example 2-8-1, 2-[5-cyclopropyl-1-(4-ethoxy-2,6-difluorobenzyl)-4-methyl-1H-pyrazol-3-yl]-5-[2-(methylsulfinyl)ethoxy]-N-(pyridin-4-yl)pyrimidin-4-amine], for which the IC50 in test [1] (setting [3]) was 4.19 nM; in test [2] (setting [4]), 3930 nM.

In the case of `CCOc1cc(F)c(Cn2nc(-c3ncc(OCC4CCC(=O)N4)c(Nc4ccncc4)n3)c(C)c2C2CC2)c(F)c1` (single isomer, unassigned; enantiomer 1) [Example 2-3-6, 5-[({2-[5-cyclopropyl-1-(4-ethoxy-2,6-difluorobenzyl)-4-methyl-1H-pyrazol-3-yl]-4-(pyridin-4-ylamino)pyrimidin-5-yl}oxy)methyl]pyrrolidin-2-one enantiomer 1], the IC50 turned out to be 8.14 nM in test [1] (setting [3]) and 2970 nM in test [2] (setting [4]).

With `CCOc1cc(F)c(Cn2nc(-c3ncc(OCC[S+](C)[O-])c(Nc4ccncc4)n3)c(C)c2C2CC2)c(F)c1` (single isomer, unassigned; enantiomer 1) [Example 2-8-2, 2-[5-cyclopropyl-1-(4-ethoxy-2,6-difluorobenzyl)-4-methyl-1H-pyrazol-3-yl]-5-[2-(methylsulfinyl)ethoxy]-N-(pyridin-4-yl)pyrimidin-4-amine enantiomer 1], the IC50 in test [1] (setting [3]) is 3.96 nM.

As to `CCOc1cc(F)c(Cn2nc(-c3ncc(OCC4CCC(=O)N4)c(Nc4ccncc4)n3)c(C)c2C2CC2)c(F)c1` (single isomer, unassigned; enantiomer 2) [Example 2-3-7, 5-[({2-[5-cyclopropyl-1-(4-ethoxy-2,6-difluorobenzyl)-4-methyl-1H-pyrazol-3-yl]-4-(pyridin-4-ylamino)pyrimidin-5-yl}oxy)methyl]pyrrolidin-2-one enantiomer 2], the IC50 was 12.1 nM in test [1] (setting [3]) and 2890 nM in test [2] (read-out: Biological Assay 2: Proliferation assay (HeLa cell line) median IC50, HeLa cells, 4 days incubation, crystal violet staining).

`CCOc1cc(F)c(Cn2nc(-c3ncc(OCC[S+](C)[O-])c(Nc4ccncc4)n3)c(C)c2C2CC2)c(F)c1` (single isomer, unassigned; enantiomer 2) [Example 2-8-3, 2-[5-cyclopropyl-1-(4-ethoxy-2,6-difluorobenzyl)-4-methyl-1H-pyrazol-3-yl]-5-[2-(methylsulfinyl)ethoxy]-N-(pyridin-4-yl)pyrimidin-4-amine enantiomer 2]: the IC50 in test [1] (setting [3]) is 6.17 nM.

Consider `CCOc1cc(F)c(Cn2nc(-c3ncc(OC)c(Nc4ccncc4)n3)c(C)c2OC)c(F)c1` [Example 2-1-1, 2-[1-(4-ethoxy-2,6-difluorobenzyl)-5-methoxy-4-methyl-1H-pyrazol-3-yl]-5-methoxy-N-(pyridin-4-yl)pyrimidin-4-amine], for which the IC50 amounted to 6.14 nM in test [1] (setting [5]) and 7380 nM in test [2] (setting [6]).

Regarding `COc1cnc(-c2cc(N(C)C)n(Cc3ccccc3F)n2)nc1Nc1ccncc1` [Example 2-1-2, 2-[5-(dimethylamino)-1-(2-fluorobenzyl)-1H-pyrazol-3-yl]-5-methoxy-N-(pyridin-4-yl)pyrimidin-4-amine], the IC50 is 1150 nM in test [1] (setting [3]) and > 10000 nM in test [2] (setting [6]).

With `COc1cnc(-c2cc(OC)n(Cc3ccccc3F)n2)nc1Nc1ccncc1` [Example 2-1-3, 2-[1-(2-fluorobenzyl)-5-methoxy-1H-pyrazol-3-yl]-5-methoxy-N-(pyridin-4-yl)pyrimidin-4-amine], the IC50 is 381 nM in test [1] (setting [3]) and > 10000 nM in test [2] (setting [6]).

Turning to `CCOc1cc(-c2ncc(OC)c(Nc3ccncc3)n2)nn1Cc1ccccc1F` [Example 2-1-4, 2-[5-ethoxy-1-(2-fluorobenzyl)-1H-pyrazol-3-yl]-5-methoxy-N-(pyridin-4-yl)pyrimidin-4-amine], the results for the IC50 in test [1] (setting [3]) and in test [2] (setting [6]) were 638 nM and > 10000 nM, respectively.

Regarding `COc1cnc(-c2cc(C3CC3)n(Cc3ccccc3)n2)nc1Nc1ccncc1` [Example 2-1-5, 2-(1-benzyl-5-cyclopropyl-1H-pyrazol-3-yl)-5-methoxy-N-(pyridin-4-yl)pyrimidin-4-amine], the IC50 was 516 nM in test [1] (setting [3]) and > 10000 nM in test [2] (setting [6]).

For `C=Cc1cc(-c2ncc(OC)c(Nc3ccncc3)n2)nn1Cc1ccccc1` [Example 2-1-6, 2-(1-benzyl-5-ethenyl-1H-pyrazol-3-yl)-5-methoxy-N-(pyridin-4-yl)pyrimidin-4-amine], the IC50 is 517 nM in test [1] (setting [3]) and > 10000 nM in test [2] (setting [6]).

For the compound `COc1cnc(-c2cc(OC)n(Cc3ccccc3F)n2)nc1Nc1ccncc1C#N` [Example 2-1-7, 4-({2-[1-(2-fluorobenzyl)-5-methoxy-1H-pyrazol-3-yl]-5-methoxypyrimidin-4-yl}amino)pyridine-3-carbonitrile], the IC50 in test [1] (setting [3]) is 1420 nM; in test [2] (setting [6]), > 10000 nM.

`COc1ccc(Cn2nc(-c3ncc(OC)c(Nc4ccncc4)n3)cc2C2CC2)cc1` [Example 2-1-8, 2-[5-cyclopropyl-1-(4-methoxybenzyl)-1H-pyrazol-3-yl]-5-methoxy-N-(pyridin-4-yl)pyrimidin-4-amine]: the IC50 in test [1] (setting [3]) is 73.8 nM; in test [2] (setting [6]), > 10000 nM.

Take `COc1cnc(-c2nn(Cc3c(Cl)cccc3Cl)c(C3CC3)c2C)nc1Nc1ccncc1` [Example 2-1-9, 2-[5-cyclopropyl-1-(2,6-dichlorobenzyl)-4-methyl-1H-pyrazol-3-yl]-5-methoxy-N-(pyridin-4-yl)pyrimidin-4-amine]: the results for the IC50 in test [1] (setting [3]) and in test [2] (setting [6]) were 5.76 nM and > 10000 nM, respectively.

In turn, `CCOc1cc(F)c(Cn2nc(-c3ncc(O)c(Nc4ccncc4)n3)c(C)c2C2CC2)c(F)c1` [Example 2-2-1, 2-[5-cyclopropyl-1-(4-ethoxy-2,6-difluorobenzyl)-4-methyl-1H-pyrazol-3-yl]-4-(pyridin-4-ylamino)pyrimidin-5-ol] came in with an IC50 in test [1] (setting [5]) of 6.2 nM.

For `COc1ccc(Cn2nc(-c3ncc(OC)c(Nc4ccncc4)n3)c(C)c2C2CC2)cc1` [Example 2-6-1, 2-[5-cyclopropyl-1-(4-methoxybenzyl)-4-methyl-1H-pyrazol-3-yl]-5-methoxy-N-(pyridin-4-yl)pyrimidin-4-amine], in test [1] (setting [3]), the IC50 turned out to be 15.1 nM.

`CCOc1cc(F)c(Cn2nc(-c3ncc(OC)c(Nc4ccncc4)n3)c(C)c2N(C)C)c(F)c1` [Example 2-6-2, 2-[5-(dimethylamino)-1-(4-ethoxy-2,6-difluorobenzyl)-4-methyl-1H-pyrazol-3-yl]-5-methoxy-N-(pyridin-4-yl)pyrimidin-4-amine] came in with an IC50 in test [1] (setting [5]) of 12.6 nM.

Turning to `CCOc1cc(F)c(Cn2nc(-c3ncc(C#N)c(Nc4ccncc4)n3)c(C)c2C2CC2)c(F)c1` [Example 2-6-3, 2-[5-cyclopropyl-1-(4-ethoxy-2,6-difluorobenzyl)-4-methyl-1H-pyrazol-3-yl]-4-(pyridin-4-ylamino)pyrimidine-5-carbonitrile], the IC50 in test [2] (setting [6]) is 9350 nM.

The compound `CCOc1cc(F)c(Cn2nc(-c3ncc(OC)c(Nc4ccncc4C#N)n3)c(C)c2C2CC2)c(F)c1` [Example 2-6-4, 4-({2-[5-cyclopropyl-1-(4-ethoxy-2,6-difluorobenzyl)-4-methyl-1H-pyrazol-3-yl]-5-methoxypyrimidin-4-yl}amino)nicotinonitrile] registered an IC50 in test [1] (setting [5]) of 48.6 nM.

`CCOC(=O)c1cnccc1Nc1nc(-c2nn(Cc3c(F)cc(OCC)cc3F)c(C3CC3)c2C)ncc1OC` [Example 2-6-5, ethyl 4-({2-[5-cyclopropyl-1-(4-ethoxy-2,6-difluorobenzyl)-4-methyl-1H-pyrazol-3-yl]-5-methoxypyrimidin-4-yl}amino)nicotinate] returned an IC50 in test [1] (setting [5]) of 27.4 nM.

As to `COc1cnc(-c2nn(Cc3c(F)cc(C4CC4)cc3F)c(C3CC3)c2C)nc1Nc1ccncc1` [Example 2-7-1, 2-[5-cyclopropyl-1-(4-cyclopropyl-2,6-difluorobenzyl)-4-methyl-1H-pyrazol-3-yl]-5-methoxy-N-(pyridin-4-yl)pyrimidin-4-amine], the IC50 in test [1] (setting [3]) worked out at 8.62 nM.

Take `COc1cnc(-c2nn(Cc3c(F)cc(OC(F)F)cc3F)c(C3CC3)c2C)nc1Nc1ccncc1` [Example 2-10-1, 2-{5-cyclopropyl-1-[4-(difluoromethoxy)-2,6-difluorobenzyl]-4-methyl-1H-pyrazol-3-yl}-5-methoxy-N-(pyridin-4-yl)pyrimidin-4-amine]: the IC50 in test [1] (setting [3]) came out at 6.79 nM.

The compound `CCOc1cc(F)c(Cn2nc(-c3ncc(OC)c(Nc4ccncc4C(=O)O)n3)c(C)c2C2CC2)c(F)c1` [Example 2-11-1, 4-({2-[5-cyclopropyl-1-(4-ethoxy-2,6-difluorobenzyl)-4-methyl-1H-pyrazol-3-yl]-5-methoxypyrimidin-4-yl}amino)nicotinic acid] had an IC50 in test [1] (setting [5]) of 26.8 nM.

The values are drawn from patent US9643953B2, “Substituted benzylpyrazoles” (Bayer Intellectual Property GmbH, priority 2011, dated 2017).
